Test results taken from patent US20210015944A1, “Targeted Doxorubicin-Gold Nanocojugates for Tumor Therapy” (The Curators of the University of Missouri, priority 2017, published 2021).
≈ marks a conversion by molar mass, not a printed value. Like-named read-outs stand apart in the source and are kept apart here.

Assays:
[1] = system: PC3 human prostate cancer cells; assay: In vitro cytotoxicity MTT assay, GRP expressing cells; type: cell-based; details: PC-3, 24 hour incubation, based on total weight of nanoconjugate, read-out: IC50, Nanoconjugate Conc.
Procedure: (§1) Cell culture: PC-3 human prostate and MDA-MB231 human breast carcinoma cells (ATCC, USA) were grown in RPMI 1640 medium (obtained from Gibco BRL, Grand Island, N.Y.) supplemented with 4.5 g/L D-glucose, 25 mM Hepes, 0.11 g/L sodium pyruvate, 1.5 g/L sodiumbicarbonate, 2 mM L-glutamine, 10% heat-inactivated fetal bovine serum (Atlanta Biologicals, USA) and 1% penicillin/streptomycin antibitiotic solution. Cells were cultured in a humidified atmosphere of 95% air and 5% CO2 at 37° C. (Thermo Scientific, USA), with the medium changed every other day. The cells were adherent in monolayers and when confluent were harvested from the cell culture flasks with trypsin—EDTA (Invitrogen) and seeded further apart.
In vitro Cytotoxicity Assay: In vitro cytotoxicity evaluation of NP1-DOX and NP2-DOX with respective controls such as NP1, NP2, free doxorubicin was performed on GRP expressing and non-expressing cancer cells, PC3 and MDA-MB-231, respectively. The cytotoxicity evaluation was performed in triplicates and the protocol was followed as described by the manufacturer. […] The plates were kept for 2 hours in dark at 25° C. to dissolve all crystals, and the intensity of developed color was measured by micro plate reader (Epoch, BioTek, USA) operating at 570 nm wavelength. […]

[2] = system: MDA-MB-231 human breast cancer cells; assay: In vitro cytotoxicity MTT assay, non-GRP expressing cells; type: cell-based; details: MDA-MB231 cells; for IC50: Homo sapiens, MDA-MB-231
Procedure: as §1
In vitro Cytotoxicity Assay: In vitro cytotoxicity evaluation of NP1-DOX and NP2-DOX with respective controls such as NP1, NP2, free doxorubicin was performed on GRP expressing and non-expressing cancer cells, PC3 and MDA-MB-231, respectively. The cytotoxicity evaluation was performed in triplicates and the protocol was followed as described by the manufacturer. Briefly, 1×10^5 ml^−1 cells at the exponential growth phase were placed in a flat bottom 96-well polystyrene-coated plate and were incubated for 12 hour in a CO2 incubator at 5% CO2 and 37° C. A series of concentrations ranging from 0 to 10 ug/mL (0, 0.31, 0.625, 1.25, 2.5, 5.0 and 10 μg/mL) of NP1-Dox and NP2-Dox was prepared in the medium. Each concentration was added to the plate in quadruplets. After 24 hour incubation, 10 μL per well MTT (as received from the manufacturer, Promega Corporation, USA) was added and kept for 4 hours, and the formazan crystals so formed were dissolved in 100 μL detergent/solubilizing buffer. The plates were kept for 2 hours in dark at 25° C. to dissolve all crystals, and the intensity of developed color was measured by micro plate reader (Epoch, BioTek, USA) operating at 570 nm wavelength. Wells with complete medium, nanoparticles, and MTT, but without cells, were used as blanks. Untreated cells were considered 100% viable. […]

`COc1cccc2c1C(=O)c1c(O)c3c(c(O)c1C2=O)C[C@@](O)(C(=O)CO)C[C@@H]3O[C@H]1C[C@H](N)[C@H](O)[C@H](C)O1` [Doxorubicin] showed an IC50 [1] of 9.5 µg/mL (≈ 17.5 µM), an IC50 ([2]; 24 hour incubation, MTT, based on total weight of nanoconjugate, read-out: IC50, Nanoconjugate Conc.) of over 10 µg/mL and an IC50 ([2]; in terms of doxorubicin loaded (0.53 μg/mg NP1-DOX, 0.3 μg/mg NP2-DOX), read-out: IC50, Doxorubicin Conc.) of over 10 µg/mL. The “IC50, Nanoconjugate Conc.” value ([2]; 24 hour incubation, MTT, based on total weight of nanoconjugate) was over 10 µg/mL.
